{"source": "a compilation of properties of binary mixtures (doi:10.1021/acs.jpcc.9b02625)", "test": "xn = mol fraction of the nth substance listed", "settings": "303.15 K, 101 kPa", "data": [{"smiles": "O=S(=O)([N-]S(=O)(=O)C(F)(F)F)C(F)(F)F.[Li+]", "note": "+ O=S1(=O)CCCC1", "values": [{"measurement": "electrical conductivity", "setting": "x1 = 0.1", "result": 0.274, "unit": "S/m"}, {"measurement": "viscosity", "setting": "x1 = 0.1", "result": 28, "unit": "mPa·s"}, {"measurement": "electrical conductivity", "setting": "x1 = 0.111", "result": 0.262, "unit": "S/m"}, {"measurement": "viscosity", "setting": "x1 = 0.111", "result": 31, "unit": "mPa·s"}, {"measurement": "electrical conductivity", "setting": "x1 = 0.2", "result": 0.166, "unit": "S/m"}, {"measurement": "viscosity", "setting": "x1 = 0.2", "result": 90.3, "unit": "mPa·s"}, {"measurement": "electrical conductivity", "setting": "x1 = 0.25", "result": 0.104, "unit": "S/m"}, {"measurement": "viscosity", "setting": "x1 = 0.25", "result": 175, "unit": "mPa·s"}, {"measurement": "electrical conductivity", "setting": "x1 = 0.333", "result": 0.042, "unit": "S/m"}, {"measurement": "viscosity", "setting": "x1 = 0.333", "result": 627, "unit": "mPa·s"}]}]}
